In test [1] the test system is HepG2 (Hepatocellular carcinoma). As to the kind of experiment: MTT in vitro cytotoxicity assay, HepG2. The format is cell-based, human. The note with it: Homo sapiens, NA: Not active. The method, then: (§1) The synthesized compounds were evaluated for in-vitro cytotoxic activity against various cell lines such as HeLa (cervical cancer), MCF-7 (breast cancer), HL-60 (Human promyelocytic leukemia), HepG2 (Hepatocellular carcinoma) and MCF 12A (normal epithelial cell) by the MTT assay method. […] The relationship between surviving fraction and drug concentration was plotted to obtain the survival curve of all the cancer cell lines HeLa, MCF-7, HL-60 and HepG2. The response parameter calculated was the IC50 values, which responds to the concentration required for 50% inhibition of cell viability. The in-vitro cytotoxic activity of the synthesized compounds is summarized Table 3.
(§2) The target compounds were subjected to in vitro cytotoxicity bioassay. In vitro cytotoxicity was determined using a standard MTT assay with protocol appropriate for the individual test system[29]–[31]. The four human cancer cell lines HeLa, MCF-7, HL-60, HepG2 and MCF-12A were cultured in the MEM medium supplemented with 10% FBS, 1% glutamine and […] gentamicin sulfate in a CO2 incubator in a humidified atmosphere of 5% CO2 and 95% air. The test compounds were prepared prior to the experiment by dissolving in 0.1% DMSO and diluted with medium. The cells were then exposed to different concentrations of drugs ([…]) in the volume of […]. Cells in the control wells received the same volume of medium containing 0.1% DMSO. After 24 h, the medium was removed and cell cultures were incubated with […] MTT reagent (1 mg/ml) for 5 h at 37 °C. The known number of cells ([…]) was incubated in a 5% CO2 incubator at 37 °C in the presence of different concentrations of test compounds. After 48 h of drug incubation, the MTT solution was added in each well and absorbance was recorded at 540 nm by an ELISA reader. The experiment was performed in triplicate. Cell survival was calculated as the percentage of MTT inhibition as % growth inhibition = 100 − (mean OD of individual test Group/Mean OD of each Control Group) × 100.

Test [2] concerns HL-60 (Human promyelocytic leukemia). As to the kind of experiment: MTT in vitro cytotoxicity assay, HL-60. The format is cell-based. Conditions: Homo sapiens. The procedure:
as §1, §2

A further test concerns MCF-7 (breast cancer). As to the kind of experiment: MTT in vitro cytotoxicity assay, MCF-7. The note with it: Homo sapiens, MCF7. The format is cell-based, human. The procedure:
as §1, §2

The subject of test [3] is p-EGFR and p-Akt levels of MCF-7. As to the kind of experiment: Western blot of EGFR activation and downstream signalling in MCF-7. The format is cell-based, human. The note with it: immunoblotting, concentration-dependent. An excerpt:
However, despite of excellent inhibitory activity of 7l against the EGFR-TK, its mechanism behind this phenomena has not been elucidate till now, thus, in this part of the study, we are interested in exploring the effect of compound 7l on the activation and downstream signalling pathway of the EGFR. Towards this, the effect of 7l has been determined on the expression of p-EGFR and EGFR, p-Akt and Akt levels of MCF-7 by immunoblotting experiments. Results as presented in Fig. 14 confirmed the effect of 7l on the expression of p-EGFR and p-Akt. […] Results clearly indicate the ability of 7l to inhibit the phosphorylation of EGFR which in turn decreases Akt (the downstream target protein of p-EGFR).
After incubation with the test compound, the cells were harvested and washed with PBS, and then lysed in lysis buffer. After centrifugation at 12,000 × g for 5 min, the supernatant was collected as total protein. The concentration of the protein was determined by a protein assay kit. The protein samples were separated by 10% SDS–PAGE and subsequently electro-transferred onto a PVDF (Millipore, Bedford, MA, USA). […] The antibodies were purchased from Cell Signaling Technology (MA, USA) Thus, the expression of p-EGFR, EGFR, p-Akt (pS473) and Akt were visualized by enhanced chemiluminescence (ECL) (Thermofischer Scientific Inc. USA) kit and band intensity was analyzed by image j software.
A general note: In western blotting, separated proteins are transferred to a membrane and probed.

A further test addresses T1, EGFR-TK (Homo sapiens, UniProt P00533).
T1 construct: 0.2 mg/mL Poly (Glu, Tyr) substrate, 10 mM ATP and EGFR
The experiment in a line: EGFR tyrosine kinase inhibitory activity (Kinase-Glo Plus luminescence). Format: biochemical. Conditions: at 10 µM; read-out: Percent of Inhibition, EGFR tyrosine kinase. The method, then:
Kinase activity was determined using Kinase-Glo Plus luminescence kinase assay kit, by quantitating the amount of ATP remaining in the solution of kinase reaction. The luminescent signal is correlated with the residual amount present and it was inversely related with kinase activity. The tested compounds were diluted to 100 mM in 10% DMSO, then […] of the dilution was added to a 50 mL reaction. All of the enzymatic reactions were performed at 30 °C for 40 min, 50 mL of reaction mixture contains 10 mM MgCl2, 40 mM Tris, pH 7.4, 0.1 mg/mL BSA, 0.2 mg/mL Poly (Glu, Tyr) substrate, 10 mM ATP and EGFR. Incubate the plate for 5 min at r.t. then add 50 mL of Kinase-GloPlus Luminescence kinase assay to each reaction. ADP-Glo assay kit is the protein kinase assays used to determine IC50 values in which ADP generation was measured as it leads to an increase in luminescence signal. The reaction mixture was incubated in a 96-well plate at 30 °C for 30 min, after the incubation period add 25 mL of ADP-Glo reagent to terminate the assay. Shake the 96-well plate for 30 min at ambient temperature then incubate it, then add 50 mL of kinase detection reagent. Read the 96-well plate using the ADP-Glo Luminescence reader. All the assay components were added to the blank control except the substrate. By removing the blank control value you can obtain the corrected activity for each protein kinase target.

These results are taken from publication PMC5517562, “Design and discovery of novel monastrol-1,3,5-triazines as potent anti-breast cancer agent via attenuating Epidermal Growth Factor Receptor tyrosine kinase” (Scientific Reports, 2017).

By IC50 is commonly meant the concentration needed to halve the response being measured. By inhibition is commonly meant the percentage by which the read-out fell short of the control.

T1 sequence (P00533 25-1210): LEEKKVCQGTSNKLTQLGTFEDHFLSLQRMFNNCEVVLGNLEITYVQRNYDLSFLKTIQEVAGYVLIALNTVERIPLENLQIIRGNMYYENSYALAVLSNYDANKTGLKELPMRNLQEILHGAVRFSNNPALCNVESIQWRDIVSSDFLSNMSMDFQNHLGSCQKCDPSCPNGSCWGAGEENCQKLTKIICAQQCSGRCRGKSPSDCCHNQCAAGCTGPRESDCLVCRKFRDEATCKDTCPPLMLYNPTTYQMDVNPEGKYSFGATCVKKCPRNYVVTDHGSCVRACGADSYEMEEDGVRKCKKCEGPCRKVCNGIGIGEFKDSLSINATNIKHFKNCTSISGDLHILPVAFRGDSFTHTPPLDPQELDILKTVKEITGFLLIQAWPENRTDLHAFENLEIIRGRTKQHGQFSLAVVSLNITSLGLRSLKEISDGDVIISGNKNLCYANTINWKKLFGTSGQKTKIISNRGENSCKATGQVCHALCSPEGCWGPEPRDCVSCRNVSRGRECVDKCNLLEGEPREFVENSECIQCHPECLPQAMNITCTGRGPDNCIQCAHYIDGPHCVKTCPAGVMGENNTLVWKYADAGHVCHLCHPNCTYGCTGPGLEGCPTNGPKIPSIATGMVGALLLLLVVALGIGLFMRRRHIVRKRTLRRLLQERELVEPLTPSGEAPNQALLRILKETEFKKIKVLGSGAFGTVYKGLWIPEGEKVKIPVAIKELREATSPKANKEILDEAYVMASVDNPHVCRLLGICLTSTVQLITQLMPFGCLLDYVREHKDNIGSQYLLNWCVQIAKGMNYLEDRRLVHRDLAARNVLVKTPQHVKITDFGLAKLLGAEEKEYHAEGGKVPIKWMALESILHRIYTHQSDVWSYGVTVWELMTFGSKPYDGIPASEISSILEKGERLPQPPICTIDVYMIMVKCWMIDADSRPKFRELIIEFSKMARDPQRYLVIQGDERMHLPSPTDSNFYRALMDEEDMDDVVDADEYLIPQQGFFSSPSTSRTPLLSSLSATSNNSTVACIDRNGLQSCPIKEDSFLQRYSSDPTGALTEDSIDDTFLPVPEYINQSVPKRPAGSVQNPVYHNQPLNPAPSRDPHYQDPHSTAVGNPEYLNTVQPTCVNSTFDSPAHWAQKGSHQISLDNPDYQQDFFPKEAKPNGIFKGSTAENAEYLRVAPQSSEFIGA

On to `CCOC(=O)C1=C(C)N(c2nc(Nc3cccc(F)c3)nc(Nc3cccc(F)c3)n2)C(=S)NC1c1ccc(F)cc1` (stereo not drawn) [7l, Ethyl 1-(4,6-bis((3-fluorophenyl)amino)-1,3,5-triazin-2-yl)-4-(4-fluorophenyl)-6-methyl-2-thioxo-1,2,3,4-tetrahydropyrimidine-5-carboxylate], for which the IC50 in test [1] is 31.2 ± 0.82 µM; in test [2], 23.1 ± 0.36 µM; in the test on MCF-7 (breast cancer), 41.5 ± 0.31 µM. Further, the “Level of p-Akt” value in test [3] is reported as “significantly reduced”. Besides, the “Level of p-EGFR” value in test [3] was “significantly reduced”. In addition, the inhibition at 10 µM at EGFR-TK was 96.4%.
